Laboratory results taken from paper PMC4555001 (Bioorganic & medicinal chemistry, 2015).
“Also recorded” adds a separate entry of the source.

Key:
ETA receptors [1] = experiment: Inhibition of ET-1 induced vasoconstriction in the gerbil spiral modiolar artery; conditions: agonist 1 nM ET-1; antagonist 0.1-1 μM; competitive inhibition assumed
ETA receptor [2] = conditions: read-out: Ki, ET-1 induced contraction of rat aortic strips; ref [6]-[9]; cited from earlier work
ETA receptor [3] = conditions: rat cardiac membranes; ref [6]-[9]; cited from earlier work
[4] = test system: voltage-gated Na^+ currents (TTX-sensitive); experiment: Patch clamp recording of voltage-gated Na+ currents in mouse DRG neurons; format: cell-based
[5] = test system: voltage-gated K^+ currents; experiment: Patch clamp recording of voltage-gated K+ currents in mouse DRG neurons; format: cell-based
[6] = test system: voltage-gated Ca^2+ currents (LVA, principally Cav3.2 T-type; HVA, mainly L-type); experiment: Patch clamp recording of voltage-gated Ca2+ currents in mouse DRG neurons; format: cell-based
ETA receptors [7] = conditions: ref [25], cited from earlier work

## CC1(C)CC[C@]2(C(=O)O)CC[C@]3(COC(=O)/C=C/c4ccc(O)c(O)c4)C(=CC[C@@H]4[C@@]5(C)CCC(=O)C(C)(C)[C@@H]5CC[C@]43C)[C@@H]2C1 [(+)-myriceric acid A, myriceric acid A]
ETA receptors [1]
  A2 (putative affinity value): 85 nM
ETA receptor [2]
  Ki: 66 ± 15 nM
ETA receptor [3]
  Effect on specific binding of [125I]endothelin-1: antagonizes specific binding

## CC1(C)C(=O)CC[C@]2(C)[C@H]3CC[C@@H]4CCC(=O)C[C@@]4(C#N)[C@]3(C)CC[C@@H]12 [(+)-2, (+)-(4aS,4bR,6aR,10aR,10bR,12aR)-4b,7,7,10a-Tetramethyl-3,8-dioxo-octadecahydrochrysene-4a-carbonitrile]
ETA receptors [1]
  A2 (putative affinity value): 134 nM

## CC1(C)[C@@H]2CC[C@]3(C)[C@H](CC[C@@H]4CC=C(O[Si](C)(C)C(C)(C)C)C[C@]43C=N)[C@@]2(C)CCC12OCCO2 [(-)-3, (-)-{(4aR,4bR,6aR,10a S,10bR,12aR)-9-(tert-Butyldimethylsilyloxy)-1,1,4a,10b-tetramethyl-3,4,4a,4b,5,6,6a,7,10,10a,10b,11,12,12a-tetradecahydro-1H-spiro[chrysene-2,2′-[1,3]dioxolane]-10a-yl}methanimin]
ETA receptors [1]
  A2 (putative affinity value): 93 nM
[4]; 0.3 μM (as stated in conclusions)
  Inhibition of Na+ currents: little inhibitions
[4]; 3 μM
  Inhibition of Na+ currents: non-specific inhibition
[4]; 0.1 - 0.3 μM, depolarizing to 0 mV for 20 ms
  Inhibition of Na+ currents: little inhibition; also recorded: little inhibitory effect
[5]; 3 μM
  Inhibition of K+ currents: non-specific inhibition
[5]; 0.1 - 0.3 μM, depolarizing to 70 mV for 300 ms
  Inhibition of K+ currents: little inhibition; also recorded: little inhibitory effect
[6]; 3 μM
  Inhibition of Ca2+ currents: completely block; also recorded: non-specific inhibition
[6]; 0.1 and 0.3 μM, step to -10 mV from Vh -90 mV
  Inhibition of Ca2+ currents: substantially inhibited
[6]; bath application 0.1 - 3 μM
  Inhibition of LVA- and HVA-Ca2+ currents: concentration-dependent inhibition; also recorded: concentration-dependent blockage

## CC1(C)C(=O)CC[C@]2(C)[C@H]3CCc4ccc(OCCO)cc4[C@]3(C)CC[C@@H]12 [(-)-6, (-)-(4aR,10bR)-9-(2-Hydroxyethoxy)-1,1,4a,10b-tetramethyl-4,4a,5,6,10b,11,12,12a-octahydro-(1 H,3H,4bH)-chrysen-2-one]
ETA receptors [1]
  A2 (putative affinity value): 318 nM

## CC1(C)[C@@H]2CC[C@]3(C)[C@H](CC[C@@H]4CC[C@@]5(O)C[C@]43C=N5)[C@@]2(C)CCC12OCCO2 [(-)-4, (-)-Spiro-(10a, 9)-{(4aR,4bR,6aR,10aS,10bR,12aR)-1,1,4a,10b-tetramethyl-3,4,4a,4b,5,6,6a,7,10,10a,10b,11,12,12a-tetradecahydro-1H-spiro[chrysene-2,2′-[1,3]dioxolane]-10a-yl}methyl-hemiaminal]
ETA receptors [1]
  A2 (putative affinity value): 301 nM

## CC1(C)C(=O)CC[C@]2(C)[C@H]3CC[C@@H]4CCC(=O)C=C4[C@]3(C)CC[C@@H]12 [(+)-1, (+)-(4aR,10bR)-1,1,4a,10b-Tetramethyl-4,4a,4b,5,6,6a,7,8,10b,11,12,12a-dodecahydro-chrysene-2,9(1H,3H)-dione]
ETA receptors [1]
  A2 (putative affinity value): 193 nM

## Endothelin-1 [ET-1]
ETA receptors [7]; normalized to 10 mM Ca2+ vasoconstriction
  Emax, normalized maximal vasoconstriction: 140%
ETA receptors [7]; read-out: EC50 of vasoconstriction, gerbil spiral modiolar artery
  EC50: 0.74 nM

## CC1(C)C(=O)CC[C@]2(C)[C@H]3CCc4ccc(O)cc4[C@]3(C)CC[C@@H]12 [(-)-5, (-)-(4aR,4bR,10bR)-9-Hydroxy-1,1,4a,10b-tetramethyl-3,4,4a,4b,5,6,10b,11,12,12a-decahydrochrysen-2(1H)-one]
ETA receptors [1]
  A2 (putative affinity value): 205 nM
